The values that follow come from patent US20210147343A1 (priority 2018, published 2021).

In assay [1] the target is T1, mu opioid receptor (MOR) (Homo sapiens, UniProt P35372). Nature of the assay: MOR GTPγS agonist assay. The note with it: membranes of CHO cells over-expressing MOR; SPA beads; read-out: MOR GTPγS EC50. The format is biochemical. Set-up: host or cells: CHO-K1. From the text:
Membranes obtained from the stable cell lines over-expressing MOR were subjected to GTPγS assay using SPA beads (Perkin Elmer, Cat #RPNQ0001).

Assay [2] deals with T1, mu opioid receptor (MOR). Nature of the assay: MOR cAMP agonist assay.

Structures can show the parent of a compound that is named as a salt. Some results are limits rather than exact numbers.

T1 sequence (P35372 whole entry): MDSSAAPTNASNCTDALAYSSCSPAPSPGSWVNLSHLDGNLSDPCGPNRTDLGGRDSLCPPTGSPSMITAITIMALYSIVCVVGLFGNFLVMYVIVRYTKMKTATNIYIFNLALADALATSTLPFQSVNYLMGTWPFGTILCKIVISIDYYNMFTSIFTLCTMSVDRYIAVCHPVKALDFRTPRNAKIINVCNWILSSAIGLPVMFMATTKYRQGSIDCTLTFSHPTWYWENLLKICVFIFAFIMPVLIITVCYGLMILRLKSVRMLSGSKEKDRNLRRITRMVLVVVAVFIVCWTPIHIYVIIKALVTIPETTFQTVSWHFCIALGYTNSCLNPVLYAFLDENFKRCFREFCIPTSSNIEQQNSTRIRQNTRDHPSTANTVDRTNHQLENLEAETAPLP

As to `CN(C)[C@H](CNC(=O)c1ccc(Cl)c(Cl)c1)Cc1ccc2n[nH]cc2c1` [Compound C-4, (S)-3,4-dichloro-N-(2-(dimethylamino)-3-(1H-indazol-5-yl)propyl)benzamide], the EC50 at mu opioid receptor (MOR) [1] is < 100 nM.

As for `CN1Cc2cc(O)ccc2C[C@H]1CNC(=O)[C@@H]1C[C@]1(C)c1ccccc1` [Compound B-50, (1R,2S)—N—(((S)-7-hydroxy-2-methyl-1,2,3,4-tetrahydroisoquinolin-3-yl)methyl)-2-methyl-2-phenylcyclopropane-1-carboxamide], on mu opioid receptor (MOR) [2], the EC50 is < 100 nM.

As for `CNC(=O)c1cc(C)c(CC(CNC(=O)c2ccccc2C2CC2)N(C)C)c(C)c1` (stereo not shown) [Compound C-43], the concentration for a half-maximal effect (EC50) at mu opioid receptor (MOR) [1] was < 100 nM. On to `Cc1cc(O)cc(C)c1C[C@@H](CNC(=O)c1cc(F)c(Cl)c(F)c1)N(C)C` [Compound C-29], for which, on mu opioid receptor (MOR) [1], the EC50 is < 100 nM.

`CN(C)[C@H](CNC(=O)c1ccc(Cl)c(F)c1)Cc1ccc2n[nH]cc2c1` [Compound C-65, (S)-4-chloro-N-(2-(dimethylamino)-3-(2H-indazol-5-yl)propyl)-3-fluorobenzamide]: the EC50 on mu opioid receptor (MOR) [1] is < 100 nM. The same measure, in the same setting: under `CN(C)[C@H](CNC(=O)c1ccc(C2CC2)cc1)Cc1ccc(O)cc1Cl` [Compound C-20] stands > 1000 nM. For `CNC(=O)c1cc(C)c(C[C@@H](CNC(=O)c2ccccc2Cl)N(C)C)c(C)c1` [Compound C-10], at mu opioid receptor (MOR) [1], the EC50 fell in the range of 100 to 1000 nM. On to `CNC(=O)c1cc(C)c(C[C@@H](CNC(=O)c2ccc(C)cc2C)N(C)C)c(C)c1` [Compound C-18], for which the concentration for a half-maximal effect (EC50) at mu opioid receptor (MOR) [1] was < 100 nM. With `CCNC(=O)c1ccc(C[C@@H](CNC(=O)[C@@H]2C[C@]2(C)c2ccccc2)N(C)C)cc1F` [Compound B-34, 4-((S)-2-(dimethylamino)-3-((1R,2S)-2-methyl-2-phenylcyclopropane-1-carboxamido)propyl)-N-ethyl-2-fluorobenzamide], the EC50 at mu opioid receptor (MOR) [2] is < 100 nM. Take `CN(C)[C@H](CNC(=O)c1ccc(Cl)cc1Cl)Cc1ccc2n[nH]cc2c1` [Compound C-50, (S)-2,4-dichloro-N-(2-(dimethylamino)-3-(1H-indazol-5-yl)propyl) benzamide]: the EC50 on mu opioid receptor (MOR) [1] lay within 100 to 1000 nM. Take `Cc1cnc(C(=O)NC[C@H](Cc2ccc3n[nH]cc3c2)N(C)C)c(C)c1` [Compound C-52]: the EC50 at mu opioid receptor (MOR) [1] was > 1000 nM. For the compound `CNC(=O)c1c(F)cc(C[C@@H](CNC(=O)[C@@H]2C[C@]2(C)c2ccccc2)N(C)C)cc1F` [Compound B-27, 4-((S)-2-(dimethylamino)-3-((1R,2S)-2-methyl-2-phenylcyclopropane-1-carboxamido)propyl)-2,6-difluoro-N-methylbenzamide], the concentration for a half-maximal effect (EC50) at mu opioid receptor (MOR) [2] was < 100 nM. In the case of `CN(C)[C@](C)(CNC(=O)c1ccc(Cl)c(Cl)c1)Cc1ccc(O)cc1` [Compound C-3, (S)-3,4-dichloro-N-(2-(dimethylamino)-3-(4-hydroxyphenyl)-2-methylpropyl)benzamide], the EC50 at mu opioid receptor (MOR) [1] was > 1000 nM. Consider `CNC(=O)c1cc(C)c(C[C@@H](CNC(=O)c2cnccn2)N(C)C)c(C)c1` [Compound C-47, (S)—N-(3-(2,6-dimethyl-4-(methylcarbamoyl)phenyl)-2-(dimethylamino)propyl)pyrazine-2-carboxamide], for which, on mu opioid receptor (MOR) [1], the EC50 was > 1000 nM. On the same count and under the same terms, the same measure for `CNC(=O)c1ccc(C[C@@H](CNC(=O)c2cccc(Cl)c2)N(C)C)c(Cl)c1` [Compound C-41]: < 100 nM. As to `CNC(=O)c1cc(C)c(C[C@@H](CNC(=O)c2ccc(OC)cc2)N(C)C)c(C)c1` [Compound C-17], the EC50 on mu opioid receptor (MOR) [1] was < 100 nM. `CN(C)[C@H](CNC(=O)[C@@H]1C[C@@H]1c1ccccc1)Cc1ccc(O)cc1` [Compound B-25, (1R,2S)—N—((S)-2-(dimethylamino)-3-(4-hydroxyphenyl)propyl)-2-phenylcyclopropane-1-carboxamide] gave an EC50 on mu opioid receptor (MOR) [2] of 100 to 1000 nM. Regarding `CNC(=O)c1cc(C)c(C[C@@H](CNC(=O)[C@@H]2C[C@@]2(C)c2ccccc2)N(C)C)cc1F` [Compound B-26, 4-((S)-2-(dimethylamino)-3-((1R,2R)-2-methyl-2-phenylcyclopropane-1-carboxamido)propyl)-2-fluoro-N,5-dimethylbenzamide], the half-maximal effective concentration (EC50) at mu opioid receptor (MOR) [2] was < 100 nM. In the case of `Cc1cc(O)cc(C)c1C[C@@H](CNC(=O)N1CCc2ccccc2C1)N(C)C` [Compound C-55, (S)—N-(2-(dimethylamino)-3-(4-hydroxy-2,6-dimethyphenyl)propyl)-3,4-dihydroisoquinoline-2(1H)-carboxamide], the concentration giving a half-maximal response (EC50) at mu opioid receptor (MOR) [1] is > 1000 nM. Still for that read-out and setting: the same measure for `CN(CC(F)(F)F)[C@H](CNC(=O)c1ccc(Cl)c(Cl)c1)Cc1ccc2[nH]ncc2c1` [Compound C-63]: > 1000 nM. On to `CN(CC(F)(F)F)[C@H](CNC(=O)[C@@H]1C[C@]1(C)c1ccccc1)Cc1ccc(C(=O)NC2CC2)c(F)c1` [Compound B-29, N-cyclopropyl-2-fluoro-4-((S)-2-(methyl(2,2,2-trifluoroethyl)amino)-3-((1R,2S)-2-methyl-2-phenylcyclopropane-1-carboxamido)propyl)benzamide], for which the EC50 on mu opioid receptor (MOR) [2] was < 100 nM. For the compound `CNC(=O)c1cc(C)c(C[C@@H](CNC(=O)c2ccccn2)N(C)C)c(C)c1` [Compound C-46], the EC50 on mu opioid receptor (MOR) [1] is > 1000 nM. Regarding `CN(C)[C@H](CNC(=O)c1ccc(Cl)cc1)Cc1ccc(O)cc1Cl` [Compound C-21], the EC50 at mu opioid receptor (MOR) [1] is > 1000 nM.

For `Cc1cc(O)cc(C)c1C[C@@H](CNC(=O)c1cccc(Cl)c1)N(C)C` [Compound C-25], the EC50 on mu opioid receptor (MOR) [1] is < 100 nM.

As for `CN(C)[C@H](CNC(=O)[C@@H]1C[C@@]1(C)c1ccccc1)Cc1cc2cn[nH]c2cc1Cl` [Compound B-52, (1R,2R)—N—((S)-3-(6-chloro-2H-indazol-5-yl)-2-(dimethylamino)propyl)-2-methyl-2-phenylcyclopropane-1-carboxamide], the EC50 on mu opioid receptor (MOR) [2] is < 100 nM.

As for `CNC(=O)c1cc(C)c(C[C@@H](CNC(=O)c2cc(Cl)cc(Cl)c2)N(C)C)c(C)c1` [Compound C-12], at mu opioid receptor (MOR) [1], the EC50 is < 100 nM.

For the compound `CCNC(=O)c1ccc(C[C@@H](CNC(=O)[C@@H]2C[C@@]2(C)c2ccccc2)N(C)C)cc1F` [Compound B-23, 4-((S)-2-(dimethylamino)-3-((1R,2R)-2-methyl-2-phenylcyclopropane-1-carboxamido)propyl)-N-ethyl-2-fluorobenzamide], on mu opioid receptor (MOR) [2], the EC50 was < 100 nM. Take `CNC(=O)c1cc(C)c(C[C@@H](CNC(=O)c2cccc(Cl)c2)N(C)C)c(C)c1` [Compound C-44]: on mu opioid receptor (MOR) [1], the EC50 is < 100 nM. For `CNC(=O)c1ccc(C[C@@H](CNC(=O)c2ccc(Cl)c(Cl)c2)N(C)CC2CC2)cc1F` [Compound C-38], the EC50 at mu opioid receptor (MOR) [1] was < 100 nM. As to `CNC(=O)c1cc(C)c(C[C@@H](CNC(=O)c2ccc(Cl)cc2Cl)N(C)C)c(C)c1` [Compound C-16], the concentration for a half-maximal effect (EC50) at mu opioid receptor (MOR) [1] is < 100 nM. As for `CNC(=O)c1cc(C)c(C[C@@H](CNC(=O)c2ccc(Cl)c(F)c2)N(C)C)c(C)c1` [Compound C-13], on mu opioid receptor (MOR) [1], the EC50 was < 100 nM. With `CNC(=O)c1cc(C)c(C[C@@H](CNC(=O)c2ncc(Cl)cc2Cl)N(C)C)c(C)c1` [Compound C-48], the EC50 on mu opioid receptor (MOR) [1] lay within 100 to 1000 nM. On to `CN(C)[C@H](CNC(=O)c1ccc(Cl)c(F)c1)Cc1ccc(O)cc1Cl` [Compound C-19], for which the half-maximal effective concentration (EC50) on mu opioid receptor (MOR) [1] lay within 100 to 1000 nM. On the same count and under the same terms, the same measure for `CNC(=O)c1cc(C)c(C[C@@H](CNC(=O)c2ccc(Cl)cc2C)N(C)C)c(C)c1` [Compound C-15]: < 100 nM; for `CNC(=O)c1cc(C)c(C[C@@H](CNC(=O)c2ccc(F)c(Cl)c2)N(C)C)c(C)c1` [Compound C-14]: < 100 nM; for `CN1Cc2cc(O)ccc2C[C@H]1CNC(=O)N1CCc2ccccc2C1` [Compound C-53, (S)—N-((7-hydroxy-2-methyl-1,2,3,4-tetrahydroisoquinolin-3-yl)methyl)-3,4-dihydroisoquinoline-2(1H)-carboxamide]: < 100 nM. Still for that read-out and setting: under `CN(CC1CC1)[C@H](CNC(=O)c1ccc(Cl)c(Cl)c1)Cc1ccc2[nH]ncc2c1` [Compound C-62, (S)-3,4-dichloro-N-(2-((cyclopropylmethyl)(methyl)amino)-3-(1H-indazol-5-yl)propyl)benzamide] stands 100 to 1000 nM; under `CNC(=O)c1cc(C)c(C[C@@H](CNC(=O)c2ccc(Cl)c(Cl)c2)N(C)C)c(C)c1` [Compound C-42, (S)-4-(3-(3,4-Dichlorobenzamido)-2-(dimethylamino)propyl)-N,3,5-trimethylbenzamide Hydrochloride], < 100 nM; under `CN(C)[C@H](CNC(=O)c1cccc(Cl)c1)Cc1ccc(O)cc1` [Compound C-23, (S)-3-chloro-N-(2-(dimethylamino)-3-(4-hydroxyphenyl)propyl)benzamide], 100 to 1000 nM. Same read-out and setting: the same measure for `CN1Cc2cc(O)ccc2C[C@H]1CNC(=O)c1cccc(Cl)c1` [Compound C-36, (S)-3-chloro-N-((7-hydroxy-2-methyl-1,2,3,4-tetrahydroisoquinolin-3-yl)methyl)benzamide]: < 100 nM; for `Cc1ccc(C(=O)NC[C@H](Cc2ccc3n[nH]cc3c2)N(C)C)c(C)c1` [Compound C-51]: 100 to 1000 nM. Turning to `CNC(=O)c1ccc(C[C@@H](CNC(=O)N2CCc3ccccc3C2)N(C)C)cc1F` [Compound C-58, (S)—N-(2-(dimethylamino)-3-(3-fluoro-4-(methylcarbamoyl)phenyl)propyl)-3,4-dihydroisoquinoline-2(1H)-carboxamide], at mu opioid receptor (MOR) [1], the EC50 is < 100 nM. As for `Cc1cc(O)cc(C)c1C[C@@H](CNC(=O)c1ccc(Cl)c(F)c1)N(C)C` [Compound C-6, (S)-4-chloro-N-(2-(dimethylamino)-3-(4-hydroxy-2,6-dimethylphenyl)propyl)-3-fluorobenzamide], on mu opioid receptor (MOR) [1], the EC50 is < 100 nM. As to `CNC(=O)c1cc(C)c(C[C@@H](CNC(=O)c2ccc(Cl)cc2)N(C)C)c(C)c1` [Compound C-11], the EC50 on mu opioid receptor (MOR) [1] is < 100 nM. `CNC(=O)c1cc(C)c(C[C@@H](CNC(=O)c2ncc(C)cc2C)N(C)C)c(C)c1` [Compound C-49]: the EC50 at mu opioid receptor (MOR) [1] fell in the range of 100 to 1000 nM.

For `COc1ccc(C(=O)NC[C@H](Cc2c(C)cc(O)cc2C)N(C)C)cc1Cl` [Compound C-5, (S)-3-chloro-N-(2-(dimethylamino)-3-(4-hydroxy-2,6-dimethylphenyl)propyl)-4-methoxybenzamide], on mu opioid receptor (MOR) [1], the concentration for a half-maximal effect (EC50) was < 100 nM.
